US20250127787A1, “METHODS FOR TREATING PERIPHERAL NEUROPATHY” (University of Pittsburgh - Of the Commonwealth System of …, priority 2021, published 2025)
“Also recorded” adds a separate entry of the source.

Assays:
[1] = tested on: superoxide dismutase (SOD1); test: SOD1 expression in CYP-CIPN rat peripheral (sciatic) nerves, Western immunoblotting; format: in vivo; conditions: 8-AG 5 mg/kg/day in drinking water from 2 weeks prior to CYP
Method: (§1) Animals. This study employed female Harlan Sprague Dawley (HSD) rats (3-4 mo; Envigo, Indianapolis, IN) and were divided into the following groups: 1) Control, 2) Cyclophosphamide (CYP, 75 mg/kg i.p. in saline vehicle; administered on days 0, 3 and 6); 3) 8-aminoguanine (8-AG; 5 mg/kg/day in drinking water; beginning 2 weeks prior to CYP and continuing until sacrifice (day 8)). The dose of 8-AG is based on our preliminary and published experiments. […] The investigation conforms to the Guide for the Care and Use of Laboratory Animals published by the US National Institutes of Health (NIH Publication No. 85-23, revised 1996). […]
(§2) Western immunoblotting: Following the testing paradigms, rats were deeply anesthetized and tissues (e.g., epidermis, peripheral sciatic nerves, spinal cord segments (L3-L5) and dorsal root ganglia (L3-L5) were removed, and a portion of each preparation was homogenized using Lysing Matrix D in a FASTPREP® 24 instrument (MP Biomedicals, Solon, OH) in HBSS [5 mM KCl, 0.3 mM KH2PO4, 138 mM NaCl, 4 mM NaHO3, 0.3 mM Na2HCO3, 0.3 mM Na2HPO4, 5.6 mM glucose and 10 mM Hepes, pH 7.4 containing complete protease inhibitor cocktail (1 tablet/10 ml, Roche, Indianapolis, IN)] and phosphatase inhibitor cocktail (Sigma, 1:100). […] The protein concentrations of the supernatants were determined using the Pierce BCA protein assay (Thermo Scientific, Rockford, IL). […]

IBA-1 = test: Microglial IBA-1 expression and activation in CYP-CIPN rats; format: in vivo, rat; conditions: oral 8-AG; for effect on CYP-induced increase in IBA-1 expression (microglia): Western immunoblotting
Method: Animals: This study employed female Harlan Sprague Dawley (HSD) rats (3-4 mo; Envigo, Indianapolis, IN) and were divided into the following groups: 1) Control, 2) Cyclophosphamide (CYP, 75 mg/kg i.p. in saline vehicle; administered on days 0, 3 and 6 until sacrifice on day 8); 4) Paclitaxel (2 mg/kg i.p., 2 mg/kg i.p. in saline from a stock solution of 50/50 CremophorEL/ethanol); administered on days 0, 2, 4 and 6 until sacrifice on day 8; 4) 8-aminoguanine (8-AG; 5 mg/kg/day in drinking water; beginning 2 weeks prior to either CYP or PAC and continuing until sacrifice (day 8)). The dose of 8-AG was based on the experiments described above. […] All tissues (spinal cord and hindpaw epidermis) were removed from isoflurane anesthetized rats and the tissue was used for various experimental approaches as described below. At the end of tissue removal, animals were sacrificed by thoracotomy.
Thus, the effectiveness of 8-aminoguanine in CYP—CIPN microglial expression and activation was evaluated.

sciatic nerve-crush rats = test: Von Frey sensory testing after sciatic nerve crush; format: in vivo, rat; conditions: hindpaw footpad, day 2 and day 5 post injury, 8-AG 5 mg/kg/day in drinking water
Method: Animals. This study employed female Harlan Sprague Dawley (HSD) rats (3-4 mo; Envigo, Indianapolis, IN) and were divided into the following groups: 1) Control, 2) Sciatic nerve crush (day 0, sacrifice on day 6); 3) 8-aminoguanine (8-AG; 5 mg/kg/day in drinking water; beginning 2 weeks prior to nerve crush and continuing until sacrifice (day 6)). The dose of 8-AG is based on the work above and published experiments. Further, the water consumption/day was tracked. […] All tissues (hindpaw epidermis) were removed from isoflurane anesthetized rats and the tissue was used for various experimental approaches as described below. At the end of tissue removal, animals were sacrificed by thoracotomy.
Von Frey sensory testing. Control, sciatic nerve crush (one of the most common models of peripheral nerve injury in rodents) and 8-AG-treated sciatic nerve-crush rats were placed in an elevated chamber on a wire mesh floor and after acclimatization, calibrated von Frey microfilaments were applied to determine paw withdrawal threshold (PWT, in grams). Briefly, microfilaments (Stoelting Corp, USA) were applied with different forces perpendicularly to the plantar surface of both ipsilateral and contralateral hindpaw by increasing and decreasing stimulus intensity. […]

protein carbonylation = test: Protein carbonylation in CYP-CIPN rat hindpaw epidermis; format: in vivo; conditions: 8-AG 5 mg/kg/day in drinking water
Method: as §1, §2

With `Nc1nc2[nH]c(N)nc2c(=O)[nH]1` [8-AG, 8-Aminoguanine] the “effect on CYP-induced decrease in SOD1 expression” value [1] was “normalized; also recorded: prevented”, the “effect on CYP-induced increase in IBA-1 expression (microglia)” value (IBA-1) was “normalized” and the “effect on CYP-induced increase in IBA-1 expression (microglia)” value (IBA-1; listed as 8-aminoguanine) was “reversed; also recorded: normalized”. For the same molecule, the “effect on CYP-induced increase in spinal IBA-1 activation” value (IBA-1; measured by densitometry) was “normalized”, the “effect on injury-induced increase in sensitivity to mechanical stimuli (paw withdrawal threshold)” value (sciatic nerve-crush rats) was “restored to control values; also recorded: normalized” and the “effect on injury-induced increase in sensitivity to mechanical stimuli (paw withdrawal threshold)” value (sciatic nerve-crush rats; listed as 8-Aminoguanine) was “normalized”. For the same molecule, the “effect on CYP-induced protein carbonylation” value (protein carbonylation) was “completely prevents; also recorded: restored values to that of a control state”.
